Assay results published in patent US12653191B2, “Active compound combinations” (Bayer Aktiengesellschaft, priority 2020, dated 2026).
Where “and” joins values, the source holds several entries; their conditions need not be identical. Identical values can stand only once.

Experiments:
[1] = test system: Fusarium culmorum; experiment: in vitro-Test with fungal microorganisms, Method A (tables G1-G4); assay type: cell-based; conditions: alone
Protocol: (§1) Example: In Vitro-Test with Fungal Microorganisms
(§2) Wells of 96-well microtiter plates are filled with 10 μl of a preparation of test compound or compound combination in methanol+emulsifier alkylaryl-polyglycol-ether. Thereafter, the solvent is evaporated in a hood. At the next step, 100 μl of liquid potato dextrose medium is given into each well, that has been amended with an appropriate concentration of spores or mycelium suspension of the test fungus.
(§3) With the aid of a photometer, the extinction in all wells is measured at the wavelength of 620 nm.
(§4) The microtiter plates are incubated at 20° C. and 85% relative humidity. The inhibition of growth is determined again photometrically 3-5 days after the application. Efficacy is calculated in relation to the untreated control, 0% efficacy means fungal growth as high as in untreated control while 100% efficacy means no fungal growth is measured.
(§5) The data in tables A1 to A12, B1 to B14, C1 to C10, D1 to D8, E1 to E8, F1 to F11, G1 to G4, H1 to H4 and I1 to I5 were collected according to Method A. The data in tables A13 to A22, B15 to B18, C11 to C20, E9 to E16, F12 to F15, G5 to G15, H5 to H8, I6 to I11 and J1 to J11 were collected according to Method B.

[2] = test system: Alternaria alternate; experiment: in vitro-Test with fungal microorganisms, Method A (tables A1-A12); assay type: cell-based, Alternaria alternata; conditions: applied alone
Protocol: as §1, §2, §3, §4, §5

[3] = test system: Alternaria alternata; experiment: in vitro-Test with fungal microorganisms, Method B (tables A13-A22); assay type: cell-based; conditions: single compound
Protocol: as §1
as §2, with “30” for “10”, “200” for “100”, “growth” for “potato dextrose”, “given,” for “given into each well,”
(§6) With the aid of a photometer, the extinction in all wells is measured at the wavelength of 600 nm.
(§7) The microtiter plates are incubated for 3 to 7 days at 20° C. and 85% relative humidity. After the incubation inhibition of growth is determined photometrically. Efficacy is calculated in relation to the untreated control, 0% efficacy means fungal growth as high as in untreated control while 100% efficacy means no fungal growth is measured.
as §5

[4] = test system: Botrytis cinerea; experiment: in vitro-Test with fungal microorganisms, Method A (tables B1-B14); assay type: cell-based; conditions: for Efficacy %: alone
Protocol: as §1, §2, §3, §4, §5

[5] = test system: Botrytis cinerea; experiment: in vitro-Test with fungal microorganisms, Method B (tables B15-B18); assay type: cell-based
Protocol: as §1
as §2, with “30” for “10”, “200” for “100”, “growth” for “potato dextrose”, “given,” for “given into each well,”
as §6, §7, §5

[6] = test system: Cercospora beticola; experiment: in vitro-Test with fungal microorganisms, Method A (tables C1-C10); assay type: cell-based
Protocol: as §1, §2, §3, §4, §5

[7] = test system: Cercospora beticola; experiment: in vitro-Test with fungal microorganisms, Method B (tables C11-C20); assay type: cell-based
Protocol: as §1
as §2, with “30” for “10”, “200” for “100”, “growth” for “potato dextrose”, “given,” for “given into each well,”
as §6, §7, §5

[8] = test system: Colletotrichum lindemuthianum; experiment: in vitro-Test with fungal microorganisms, Method A (tables D1-D8); assay type: cell-based
Protocol: as §1, §2, §3, §4, §5

[9] = test system: Cordana musae; experiment: in vitro-Test with fungal microorganisms, Method A (tables E1-E8); assay type: cell-based
Protocol: as §1, §2, §3, §4, §5

[10] = test system: Cordana musae; experiment: in vitro-Test with fungal microorganisms, Method B (tables E9-E16); assay type: cell-based; conditions: single active
Protocol: as §1
as §2, with “30” for “10”, “200” for “100”, “growth” for “potato dextrose”, “given,” for “given into each well,”
as §6, §7, §5

[11] = test system: Diaporthe citri; experiment: in vitro-Test with fungal microorganisms, Method A (tables F1-F11); assay type: cell-based; conditions: applied alone
Protocol: as §1, §2, §3, §4, §5

[12] = test system: Fusarium culmorum; experiment: in vitro-Test with fungal microorganisms, Method B (tables G5-G15); assay type: cell-based
Protocol: as §1
as §2, with “30” for “10”, “200” for “100”, “growth” for “potato dextrose”, “given,” for “given into each well,”
as §6, §7, §5

[13] = test system: Ustilago segetum var. avenae; experiment: in vitro-Test with fungal microorganisms, Method A (tables I1-I5); assay type: cell-based; conditions: alone
Protocol: as §1, §2, §3, §4, §5

[14] = test system: Ustilago segetum var. avenae; experiment: in vitro-Test with fungal microorganisms, Method B (tables I6-I11); assay type: cell-based
Protocol: as §1
as §2, with “30” for “10”, “200” for “100”, “growth” for “potato dextrose”, “given,” for “given into each well,”
as §6, §7, §5

[15] = test system: Colletotrichum coccodes; experiment: in vitro-Test with fungal microorganisms, Method B (tables J1-J11); assay type: cell-based
Protocol: as §1
as §2, with “30” for “10”, “200” for “100”, “growth” for “potato dextrose”, “given,” for “given into each well,”
as §6, §7, §5

CCO[PH](=O)[O-].CCO[PH](=O)[O-].CCO[PH](=O)[O-].[Al+3] [fosetylaluminium]
Efficacy ([1]; 0.8 ppm): 7%
Efficacy ([1]; 4.0 ppm): 0%
Efficacy ([1]; 20.0 ppm): 5%
Efficacy ([1]; 100.0 ppm): 9%

CC(C)c1ccc(Cl)cc1CN(C(=O)c1c(C(F)F)nn(C)c1F)C1CC1 [(2.038) isoflucypram, isoflucypram]
Efficacy % ([2]; 0.008 ppm): 43% and 52%
Efficacy % ([2]; 0.04 ppm): 70% and 71% and 74%
Efficacy % ([2]; 0.2 ppm): 77% and 85% and 83%
Efficacy % ([2]; 1.0 ppm): 82% and 84%
Efficacy ([3]; 0.008 ppm): 22%
Efficacy ([3]; 1 ppm): 77%
Efficacy ([4]; 1.0 ppm): 75%
Efficacy % ([4]; 0.008 ppm): 5%
Efficacy % ([4]; 0.04 ppm): 53%
Efficacy % ([4]; 0.2 ppm): 58%
Efficacy % ([4]; 1.0 ppm): 77%
Efficacy % ([5]; 0.2 ppm alone): 53%
Efficacy % ([5]; 1 ppm alone): 70%
Efficacy % ([6]; 0.008 ppm alone): 10%
Efficacy % ([6]; 0.04 ppm alone): 0%
Efficacy % ([6]; 0.2 ppm alone): 44%
Efficacy % ([6]; 1.0 ppm alone): 69%
Efficacy % ([7]; 0.008 ppm): 8%
Efficacy % ([7]; 0.04 ppm): 14%
Efficacy % ([7]; 0.2 ppm): 16%
Efficacy % ([7]; 1 ppm): 44%
Efficacy % ([7]; single compound, 0.04 ppm): 14% and 13%
Efficacy % ([7]; single compound, 1 ppm): 40% and 35%
Efficacy % ([8]; single active at 0.008 ppm): 0%
Efficacy % ([8]; single active at 0.04 ppm): 14%
Efficacy % ([8]; single active at 0.2 ppm): 0%
Efficacy % ([8]; single active at 1.0 ppm): 18%
Efficacy % ([9]; mixing partner alone, 0.008 ppm): 0%
Efficacy % ([9]; mixing partner alone, 0.04 ppm): 0%
Efficacy % ([9]; mixing partner alone, 0.2 ppm): 0%
Efficacy % ([9]; mixing partner alone, 1.0 ppm): 0%
Efficacy % ([9]; single substance, 0.008 ppm): 0%
Efficacy % ([9]; single substance, 0.04 ppm): 0%
Efficacy % ([9]; single substance, 0.2 ppm): 0% and 1%
Efficacy % ([9]; single substance, 1.0 ppm): 22% and 27%
Efficacy ([10]; 0.2 ppm): 9%
Efficacy ([10]; 1 ppm): 20%
Efficacy ([11]; 0.008 ppm): 0%
Efficacy ([11]; 0.04 ppm): 0%
Efficacy ([11]; 1.0 ppm): 30% and 38%
Efficacy ([12]; 0.008 ppm alone): 0%
Efficacy ([12]; 0.04 ppm alone): 0%
Efficacy ([12]; 0.2 ppm alone): 10%
Efficacy ([12]; 1 ppm alone): 24%
Efficacy ([12]; single active compound, 0.04 ppm): 10%
Efficacy ([12]; single active compound, 0.2 ppm): 19% and 20%
Efficacy % ([13]; 0.008 ppm): 6% and 0%
Efficacy % ([13]; 0.2 ppm): 100%
Efficacy % ([13]; 1.0 ppm): 100%
Efficacy % ([14]; 0.008 ppm): 9%
Efficacy % ([14]; 0.04 ppm): 17%
Efficacy % ([14]; 0.2 ppm): 100%
Efficacy % ([14]; alone, 0.008 ppm): 2%
Efficacy % ([14]; alone, 0.04 ppm): 5%
Efficacy % ([14]; alone, 0.2 ppm): 100%
Efficacy % ([15]; 0.008 ppm): 0%
Efficacy % ([15]; 0.04 ppm): 46%
Efficacy % ([15]; 0.2 ppm): 8%
Efficacy % ([15]; 1 ppm): 0%
Efficacy % ([15]; single active compound at 0.04 ppm): 0% and 1%
